Results as given in PubChem BioAssay (NCI).
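All cell lines were grown in 96-well plates and treated with compound for 48 hours. GI50 is the concentration that inhibits growth by half. TGI marks complete inhibition of growth.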

Columns and labels:
Assay in all cases: growth of human tumour cells (NCI), 48 h
[1] = test system: HCC-2998 colon
[2] = test system: MOLT-4 leukemia
[3] = test system: HL-60(TB) leukemia
[4] = test system: RXF 393 renal
[5] = test system: RPMI-8226 leukemia
[6] = test system: PC-3 prostate
[7] = test system: MALME-3M melanoma
[8] = test system: HT29 colon
[9] = test system: HOP-92 NSCLC
[10] = test system: IGROV1 ovarian

| SMILES | GI50 [1] [µM] | TGI [1] [µM] | GI50 [2] [µM] | TGI [2] [µM] | GI50 [3] [µM] | TGI [3] [µM] | GI50 [4] [µM] | TGI [4] [µM] | GI50 [5] [µM] | TGI [5] [µM] | GI50 [6] [µM] | TGI [6] [µM] | GI50 [7] [µM] | TGI [7] [µM] | GI50 [8] [µM] | TGI [8] [µM] | GI50 [9] [µM] | TGI [9] [µM] | GI50 [10] [µM] | TGI [10] [µM] |
| --- | --- | --- | --- | --- | --- | --- | --- | --- | --- | --- | --- | --- | --- | --- | --- | --- | --- | --- | --- | --- |
| Nc1nccc2c1ccn2-c1cccc(NC(=O)c2ccc(N3CCOCC3)c(C(F)(F)F)c2)c1 | 1.63 | > 44.5 | 1.7 | > 22.8 | 1.09 | 7.83 | 0.213 | 0.876 | 0.992 | 4.98 | 0.565 | 15 | 0.634 | 16.7 | 0.32 | 1.45 | 0.347 | 3.23 | 0.869 | > 46.5 |
| COc1cnc2c(c1)C(=O)c1c-2n(CCCNCCN2CCOCC2)c(=O)c2cc([N+](=O)[O-])ccc12 | 0.303 | 1.54 | 0.0335 | 0.269 | 0.104 | 0.818 | 0.387 | 1.93 | 0.171 | 1.55 | 0.568 | 13 | 0.34 | 2.86 | 0.154 | 1.31 | 0.866 | 22.8 | 0.422 | 6.76 |
| NC(=O)c1sc(-n2cnc3ccc(C(F)(F)F)cc32)cc1OCc1ccccc1Br | 2.4 | > 23.1 | 0.965 | > 25 | 0.558 | 1.76 | 0.566 | 1.94 | 2.7 | > 21.2 | 2.31 | > 25 | 9.02 | > 25 | 0.858 | > 25 | 2.5 | 16.8 | 2.22 | > 25 |
| CCOC(=O)Cn1c(-c2nonc2NC(=O)c2ccccc2F)nc2ccccc21 | 31.7 | > 100 | 0.451 | > 100 |  | > 100 | 5.67 | > 62 | 7.5 | > 100 | 3.16 | > 82.1 | 26.6 | > 87 | 0.721 | > 100 | 22.1 | 67.9 | 9.85 | > 100 |
| Cc1ccc2nc3c(n2c1)C(=O)C(=O)c1ccccc1-3 | 0.707 | 2.19 | 0.434 | 1.79 | 0.17 | 0.602 | 0.227 | 10.2 | 0.18 | 0.717 | 0.59 | 3.81 | 0.157 | 0.32 | 1.74 |  | 0.71 | 2.17 | 0.319 |  |
| CCCCCCCCCCC[C@@H](C[C@H]1OC(=O)[C@H]1CCCCCC)OC(=O)[C@@H](CC(C)C)NC=O | 5.31 | 27.3 | 0.704 | > 100 | 1.75 | 4.34 | 1.71 | 16.8 | 0.855 | 8.81 | 2.78 | 22.8 | 15.9 | 41.7 | 3.18 | 35.6 | 1.55 | 16.1 | 7.62 | 55.7 |
